Test results taken from paper PMC11855827, “High-Throughput Screening of Five Compound Libraries for Anthelmintic Activity and Toxicity Leads to the Discovery of Two Flavonoid Compounds” (International Journal of Molecular Sciences, 2025).
Read-outs that look alike come from different tables or passages of the source.

Test system: C. elegans
Test: microbe, parasite or virus in culture
Details: Caenorhabditis elegans
[1] = 0 h, read-out: Percentage of motility inhibition 0 h, Table S2, C. elegans SS assay, 110 μM, 0 h, averages of 4 data points
[2] = 24 h, read-out: Percentage of motility inhibition 24 h, Table S2, C. elegans SS assay, 110 μM, 24 h, averages of 4 data points
[3] = 0 h, read-out: Percentage of motility inhibition 0 h
[4] = 24 h, read-out: Percentage of motility inhibition 24 h

Compound: C[C@H]1O[C@@H](O[C@H]2[C@@H](O)C[C@H](O[C@H]3[C@@H](O)C[C@H](O[C@H]4CC[C@@]5(C)[C@H](CC[C@@H]6[C@@H]5CC[C@]5(C)[C@@H](C7=CC(=O)OC7)CC[C@]65O)C4)O[C@@H]3C)O[C@@H]2C)C[C@H](O)[C@@H]1O [Digitoxin]
- inhibition at 110 µM [1]: 0%
- inhibition at 110 µM [2]: 3%

Compound: COc1cc(CNC(=O)CCCCCCC(C)C)ccc1O [Dihydrocapsaicin]
- inhibition at 110 µM [1]: 0%
- inhibition at 110 µM [2]: 7%

Compound: COc1ccc2c(c1OC)CN(C)c1c-2ccc2cc3c(cc12)OCO3 [Dihydrochelerythrine]
- inhibition at 110 µM [1]: 0%
- inhibition at 110 µM [2]: 7%

Compound: O=C1c2c(O)cc(O)cc2O[C@H](c2ccc(O)cc2)[C@H]1O [Dihydrokaempferol]
- inhibition at 110 µM [1]: 2%
- inhibition at 110 µM [2]: 0%

Compound: O=C1c2c(O)cc(O)cc2O[C@H](c2cc(O)c(O)c(O)c2)[C@H]1O [Dihydromyricetin]
- inhibition at 110 µM [1]: 33%
- inhibition at 110 µM [2]: 16%

Compound: CN1Cc2c(ccc3c2OCO3)-c2ccc3cc4c(cc3c21)OCO4 [Dihydrosanguinarine]
- inhibition at 110 µM [1]: 0%
- inhibition at 110 µM [2]: 0%

Compound: Oc1c(I)cc(I)c2cccnc12 [Diiodohydroxyquinoline]
- inhibition at 110 µM [1]: 38%
- inhibition at 110 µM [2]: 40%

Compound: Cc1ncc([N+](=O)[O-])n1C [Dimetridazole]
- inhibition at 110 µM [1]: 0%
- inhibition at 110 µM [2]: 14%

Compound: Cc1c(C(N)=O)cc([N+](=O)[O-])cc1[N+](=O)[O-] [Dinitolmide]
- inhibition at 110 µM [1]: 16%
- inhibition at 110 µM [2]: 14%

Compound: CN/C(=N/CC1CCOC1)N[N+](=O)[O-] (centres unmarked) [Dinotefuran]
- inhibition at 110 µM [3]: 7%
- inhibition at 110 µM [4]: 0%

Compound: COc1ccc(-c2cc(=O)c3c(O)cc(O)cc3o2)cc1O [Diosmetin]
- inhibition at 110 µM [3]: 13%
- inhibition at 110 µM [4]: 0%

Compound: CC[C@H]1OC(=O)[C@H](C)[C@@H](O[C@H]2C[C@@](C)(OC)[C@@H](O)[C@H](C)O2)[C@H](C)[C@@H](O[C@@H]2O[C@H](C)C[C@H](N(C)C)[C@H]2O)[C@](C)(O)C[C@@H](C)[C@@H]2N[C@@H](COCCOC)O[C@H]([C@H]2C)[C@]1(C)O [Dirithromycin]
- inhibition at 110 µM [1]: 3%
- inhibition at 110 µM [2]: 0%

Compound: CC(=O)O[C@@]12CO[C@@H]1C[C@H](O)[C@@]1(C)C(=O)[C@H](O)C3=C(C)[C@@H](OC(=O)[C@H](O)[C@@H](NC(=O)OC(C)(C)C)c4ccccc4)C[C@@](O)([C@@H](OC(=O)c4ccccc4)[C@H]21)C3(C)C [Docetaxel]
- inhibition at 110 µM [1]: 1%
- inhibition at 110 µM [2]: 15%

Compound: C[C@@H]1CCO[C@H]2Cn3cc(C(=O)NCc4ccc(F)cc4F)c(=O)c(O)c3C(=O)N12 [Dolutegravir]
- inhibition at 110 µM [1]: 25%
- inhibition at 110 µM [2]: 3%

Compound: C=C1C[C@@]23CC[C@H]4[C@@](C)(CCC[C@@]4(C)C(=O)O[C@@H]4O[C@H](CO)[C@@H](O)[C@H](O)[C@H]4O)[C@@H]2CC[C@]1(O[C@@H]1O[C@H](CO)[C@@H](O)[C@H](O)[C@H]1O[C@@H]1O[C@@H](C)[C@H](O)[C@@H](O)[C@H]1O)C3 [Dulcoside A]
- inhibition at 110 µM [1]: 0%
- inhibition at 110 µM [2]: 11%

Compound: N[C@@H]1CON=C1O [D‐Cycloserine]
- inhibition at 110 µM [1]: 12%
- inhibition at 110 µM [2]: 13%

Compound: O=c1c2ccccc2[se]n1-c1ccccc1 [Ebselen]
- inhibition at 110 µM [1]: 13%
- inhibition at 110 µM [2]: 12%

Compound: C=C(CC[C@@H](C(=O)O)[C@H]1CC[C@@]2(C)C3=C(CC[C@]12C)[C@@]1(C)CC[C@H](O)C(C)(C)[C@@H]1CC3)C(C)C [Eburicoic acid]
- inhibition at 110 µM [1]: 27%
- inhibition at 110 µM [2]: 56%

Compound: COc1cc(O)ccc1/C=C/C(=O)c1ccc(O)cc1 [Echinatin]
- inhibition at 110 µM [1]: 17%
- inhibition at 110 µM [2]: 10%

Compound: O=C1Nc2ccc(Cl)cc2[C@@](C#CC2CC2)(C(F)(F)F)O1 [Efavirenz]
- inhibition at 110 µM [1]: 29%
- inhibition at 110 µM [2]: 29%

Compound: CC/C=C\C/C=C\C/C=C\C/C=C\C/C=C\CCCC(=O)O [Eicosapentaenoic Acid]
- inhibition at 110 µM [1]: 0%
- inhibition at 110 µM [2]: 4%

Compound: COc1cc2c(cc1Cc1cccc(Cl)c1F)c(=O)c(C(=O)O)cn2[C@H](CO)C(C)C [Elvitegravir]
- inhibition at 110 µM [1]: 23%
- inhibition at 110 µM [2]: 48%
